Among the data in patent US20220356174A1, “PYRIDIN-2-ONE COMPOUNDS USEFUL AS SMARCA2 ANTAGONISTS” (Epizyme, Inc., priority 2018, published 2022) are IC50 values, retold here.

Read-outs that look alike come from different tables or passages of the source.

For assay [1], the target named is T1, FL-SMARCA2 (full-length human SMARCA2 isoform 1) (Homo sapiens, UniProt P51531).
T1 construct: FLAG tag (YKDDDDK) (C); made in house; host or cells: Sf21 insect cells (baculovirus, pFastBacI)
Kind of assay: SMARCA2 ATPase activity assay (ADP-Glo, chicken mononucleosome substrate). Type of assay: biochemical. The following applies: ATP 250 uM. An excerpt:
Molecular Biology: Full-length human SMARCA2 isoform 1 (P51531) transcript clone was amplified from a cDNA library incorporating an N-terminal HIS tag ([…]) fused directly to Ser2 of SMARCA2 and a C-FLAG tag (YKDDDDK) fused directly to Glu1590 of SMARCA2. The amplified gene was subcloned into pFastBacI (Life Technologies).
Protein Expression: Recombinant baculovirus were generated and protein over-expression was accomplished by infecting exponentially growing Sf21 insect cell culture at 1.24×10^6 cell/ml with an MOI of 0.1. Infections were carried out for 76 hours, harvested by centrifugation, and stored at −80° C. for purification.
Expressed full-length SMARCA2 was purified from cell paste by FLAG affinity chromatography followed by anion exchange chromatography. The protein was dialyzed into a storage buffer containing 25 mM HEPES, 300 mM KCl, 10% Glycerol, pH 7.9, 1 mM TCEP and 0.01% Tween-20. The purity of the protein was measured as 74% using micro-capillary based gel electrophoresis.

A further assay deals with FL-SMARCA4 (Homo sapiens, UniProt P51532). Put plainly: SMARCA4 ATPase activity assay (ADP-Glo, chicken mononucleosome substrate).
The mark [2] stands for this setting: Table 3.1, ATPase assay, enzyme 5 nM, chicken mononucleosome 10 nM, 30 min preincubation.
Where [3] appears, read: FL-SMARCA4 IC50, Table 3.2, ATPase assay, enzyme 5 nM, ATP 250 uM, chicken mononucleosome 10 nM, 30 min preincubation.
Setting [4] is: Table 3a.1, SMARCA2 5 nM, mononucleosome 10 nM.
Where [5] appears, read: FL-SMARCA4 IC50, Table 3a.2, SMARCA4 5 nM, ATP 250 uM, mononucleosome 10 nM.
Setting [6] is: Table 3b.1, SMARCA2 5 nM, mononucleosome 10 nM.
Where [7] appears, read: FL-SMARCA4 IC50, Table 3b.2, SMARCA4 5 nM, ATP 250 uM, mononucleosome 10 nM.
Where [8] appears, read: Table 3c.1, ATPase assay, enzyme 5 nM, chicken mononucleosome 10 nM, 30 min preincubation.
Where [9] appears, read: FL-SMARCA4 IC>50, Table 3c.2, ATPase assay, enzyme 5 nM, ATP 250 uM, chicken mononucleosome 10 nM, 30 min preincubation.
Where [10] appears, read: Table 3d.1, ATPase assay, enzyme 5 nM, chicken mononucleosome 10 nM, 30 min preincubation, read-out: FL-SMARCA2 IC>50.

T1 sequence (P51531 with tags, fused parts or gaps): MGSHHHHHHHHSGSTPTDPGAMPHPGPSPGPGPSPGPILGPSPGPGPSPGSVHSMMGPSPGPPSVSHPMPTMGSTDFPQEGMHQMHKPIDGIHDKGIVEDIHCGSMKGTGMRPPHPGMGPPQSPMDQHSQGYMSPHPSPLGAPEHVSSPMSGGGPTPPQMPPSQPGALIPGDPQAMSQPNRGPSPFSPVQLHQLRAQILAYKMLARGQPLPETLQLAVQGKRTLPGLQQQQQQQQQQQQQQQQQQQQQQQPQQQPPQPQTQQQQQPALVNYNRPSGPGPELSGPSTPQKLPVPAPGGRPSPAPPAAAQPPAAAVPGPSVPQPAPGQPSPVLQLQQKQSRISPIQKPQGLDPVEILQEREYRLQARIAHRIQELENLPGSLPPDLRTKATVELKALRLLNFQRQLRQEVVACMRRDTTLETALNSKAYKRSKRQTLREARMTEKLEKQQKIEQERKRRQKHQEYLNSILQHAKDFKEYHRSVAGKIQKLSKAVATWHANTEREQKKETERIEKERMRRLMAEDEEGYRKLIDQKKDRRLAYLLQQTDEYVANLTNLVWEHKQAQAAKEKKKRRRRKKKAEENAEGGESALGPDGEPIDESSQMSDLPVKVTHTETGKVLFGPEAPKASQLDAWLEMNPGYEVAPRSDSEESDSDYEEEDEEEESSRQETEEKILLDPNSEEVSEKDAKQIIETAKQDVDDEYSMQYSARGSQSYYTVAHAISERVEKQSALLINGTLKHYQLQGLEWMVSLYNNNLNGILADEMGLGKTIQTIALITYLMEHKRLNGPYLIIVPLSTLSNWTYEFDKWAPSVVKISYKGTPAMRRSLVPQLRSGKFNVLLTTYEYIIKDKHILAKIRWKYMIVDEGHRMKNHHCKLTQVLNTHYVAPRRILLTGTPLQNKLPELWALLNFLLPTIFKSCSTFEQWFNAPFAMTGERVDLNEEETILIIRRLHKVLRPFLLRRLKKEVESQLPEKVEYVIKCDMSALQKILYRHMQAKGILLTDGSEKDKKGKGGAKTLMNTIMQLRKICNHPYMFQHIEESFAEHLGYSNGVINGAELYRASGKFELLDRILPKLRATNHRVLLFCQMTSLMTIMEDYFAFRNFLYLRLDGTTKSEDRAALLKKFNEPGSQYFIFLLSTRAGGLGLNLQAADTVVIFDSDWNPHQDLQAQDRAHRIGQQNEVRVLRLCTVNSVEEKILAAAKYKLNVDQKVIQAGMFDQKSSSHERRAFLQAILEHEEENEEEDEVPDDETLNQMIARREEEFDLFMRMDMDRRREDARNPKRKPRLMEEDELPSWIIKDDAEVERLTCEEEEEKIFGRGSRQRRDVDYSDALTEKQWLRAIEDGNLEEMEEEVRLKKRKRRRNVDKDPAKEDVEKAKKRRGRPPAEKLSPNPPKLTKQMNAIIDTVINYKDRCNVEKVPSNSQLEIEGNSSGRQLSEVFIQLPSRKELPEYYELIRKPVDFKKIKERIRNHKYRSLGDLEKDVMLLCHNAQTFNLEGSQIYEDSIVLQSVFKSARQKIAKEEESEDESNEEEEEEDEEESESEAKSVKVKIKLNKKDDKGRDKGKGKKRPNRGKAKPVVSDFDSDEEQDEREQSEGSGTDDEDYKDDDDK
Chain of FL-SMARCA4 (P51532 whole entry): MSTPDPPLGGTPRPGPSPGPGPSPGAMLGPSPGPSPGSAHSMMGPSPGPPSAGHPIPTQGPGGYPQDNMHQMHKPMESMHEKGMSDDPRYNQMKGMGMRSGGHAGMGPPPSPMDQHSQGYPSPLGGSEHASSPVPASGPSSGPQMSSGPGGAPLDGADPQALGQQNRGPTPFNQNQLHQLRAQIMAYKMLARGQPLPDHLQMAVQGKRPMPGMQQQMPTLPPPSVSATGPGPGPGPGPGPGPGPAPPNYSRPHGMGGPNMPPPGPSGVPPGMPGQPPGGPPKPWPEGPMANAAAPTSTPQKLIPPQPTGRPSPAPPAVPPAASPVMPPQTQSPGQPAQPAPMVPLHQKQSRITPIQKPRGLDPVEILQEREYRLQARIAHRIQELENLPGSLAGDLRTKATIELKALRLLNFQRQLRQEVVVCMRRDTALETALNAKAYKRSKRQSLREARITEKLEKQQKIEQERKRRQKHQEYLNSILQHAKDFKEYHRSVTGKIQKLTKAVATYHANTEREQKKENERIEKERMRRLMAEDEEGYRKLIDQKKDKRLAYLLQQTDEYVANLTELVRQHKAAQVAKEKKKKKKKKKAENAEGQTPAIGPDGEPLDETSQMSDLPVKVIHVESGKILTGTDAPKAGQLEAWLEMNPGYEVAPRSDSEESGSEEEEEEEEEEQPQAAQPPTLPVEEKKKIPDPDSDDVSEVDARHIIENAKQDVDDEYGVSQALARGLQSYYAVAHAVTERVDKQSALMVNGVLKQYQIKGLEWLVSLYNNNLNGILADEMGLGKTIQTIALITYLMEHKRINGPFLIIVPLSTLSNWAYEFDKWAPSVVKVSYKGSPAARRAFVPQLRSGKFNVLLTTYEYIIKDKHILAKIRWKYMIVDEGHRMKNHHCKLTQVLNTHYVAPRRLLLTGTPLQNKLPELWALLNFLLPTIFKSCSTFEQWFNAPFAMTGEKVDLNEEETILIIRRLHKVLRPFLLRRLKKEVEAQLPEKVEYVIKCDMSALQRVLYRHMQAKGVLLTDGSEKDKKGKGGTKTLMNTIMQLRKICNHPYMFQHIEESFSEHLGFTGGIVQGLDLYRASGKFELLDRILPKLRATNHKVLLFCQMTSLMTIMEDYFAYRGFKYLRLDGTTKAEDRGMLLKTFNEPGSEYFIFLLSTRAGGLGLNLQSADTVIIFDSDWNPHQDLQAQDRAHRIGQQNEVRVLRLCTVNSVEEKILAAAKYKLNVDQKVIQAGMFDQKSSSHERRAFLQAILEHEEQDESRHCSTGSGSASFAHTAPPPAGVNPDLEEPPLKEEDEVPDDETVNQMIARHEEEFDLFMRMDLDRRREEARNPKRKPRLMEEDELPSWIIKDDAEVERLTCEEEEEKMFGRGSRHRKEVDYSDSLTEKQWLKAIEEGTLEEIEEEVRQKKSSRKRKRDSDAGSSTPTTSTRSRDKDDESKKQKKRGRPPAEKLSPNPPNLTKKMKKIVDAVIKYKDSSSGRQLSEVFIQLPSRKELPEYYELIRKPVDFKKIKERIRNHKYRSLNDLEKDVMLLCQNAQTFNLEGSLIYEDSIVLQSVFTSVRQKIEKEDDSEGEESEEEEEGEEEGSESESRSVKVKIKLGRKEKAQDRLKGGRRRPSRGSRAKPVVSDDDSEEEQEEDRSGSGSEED

Turning to `COCCn1cc(NC(=O)c2cnn(-c3ccccc3C)c2C)ccc1=O` [Compound 9], the IC50 (in assay [1] (setting [2]); against FL-SMARCA4 (setting [3])) was more than 50 µM in each case.

`CO[C@@H]1CN[C@H](C(=O)Nc2cc(Br)c(=O)n(C)c2)C1` [Compound 9a]: the IC50 (in assay [1] (setting [4]); at FL-SMARCA4 (setting [5])) was more than 50 µM in each case.

As for `CCn1cc(NC(=O)c2ccc(Cl)c(F)c2)ccc1=O` [Compound 9b], the IC50 is 43.7 µM in assay [1] (setting [6]) and more than 50 µM against FL-SMARCA4 (setting [7]).

`O=C(Nc1cc(F)c(=O)n(CC(F)F)c1)c1cc(C#CC2CNC2)c(Cl)s1` [Compound 9c]: the IC50 amounted to 2.88 µM in assay [1] (setting [8]) and 7.82 µM on FL-SMARCA4 (setting [9]).

`CCn1cc(NC(=O)CC2CCOCC2)ccc1=O` [Compound 9d]: the IC50 (in assay [1] (setting [10]); against FL-SMARCA4 (FL-SMARCA4 IC50)) was more than 50 µM throughout.

As to `CCn1cc(NC(=O)c2cc(C(C)C)n(-c3ccccn3)n2)ccc1=O` [Compound 10], the IC50 (in assay [1] (setting [2]); against FL-SMARCA4 (setting [3])) was more than 50 µM throughout.

Regarding `CO[C@H]1C[C@@H](C(=O)Nc2ccc(=O)n(C)c2)N(C)C1` [Compound 10a], the IC50 (in assay [1] (setting [4]); against FL-SMARCA4 (setting [5])) was more than 50 µM throughout.

As for `CCn1cc(NC(=O)c2cccc(Cl)c2F)ccc1=O` [Compound 10b], the IC50 (in assay [1] (setting [6]); against FL-SMARCA4 (setting [7])) was more than 50 µM throughout.

For `CC(C)(C)OC(=O)N1CC(C#Cc2cc(C(=O)Nc3cc(F)c(=O)n(CC(F)F)c3)sc2Cl)C1` [Compound 10c], the IC50 in assay [1] (setting [8]) amounted to 3.35 µM; against FL-SMARCA4 (setting [9]) it was 7.13 µM.

Regarding `COCCn1cc(NC(=O)c2nc(C)n(-c3ccccc3Cl)n2)ccc1=O` [Compound 11], the IC50 (in assay [1] (setting [2]); against FL-SMARCA4 (setting [3])) was more than 50 µM in each case.

Regarding `CO[C@H]1C[C@@H](C(=O)Nc2cc(Cl)c(=O)n(C)c2)N(C)C1` [Compound 11a], the IC50 (in assay [1] (setting [4]); against FL-SMARCA4 (setting [5])) was more than 50 µM each time.

As for `CCn1cc(NC(=O)C2CCCC2)ccc1=O` [Compound 11b], the IC50 (in assay [1] (setting [6]); on FL-SMARCA4 (setting [7])) was more than 50 µM in each case.

Consider `CS(=O)(=O)c1cc(NC(=O)c2cc(F)c(Cl)s2)cn(CC(F)F)c1=O` [Compound 11c], for which the IC50 (in assay [1] (setting [8]); on FL-SMARCA4 (setting [9])) was more than 50 µM each time.

`Cn1cc(NC(=O)c2cnc(-c3ccco3)s2)cc(Cl)c1=O` [Compound 12]: the IC50 (in assay [1] (setting [2]); against FL-SMARCA4 (setting [3])) was more than 50 µM throughout.

As to `CCC(CC)N1CC(C(=O)Nc2cc(Cl)c(=O)n(C)c2)CC1=O` (stereo not shown) [Compound 12a], the IC50 (in assay [1] (setting [4]); against FL-SMARCA4 (setting [5])) was more than 50 µM throughout.

With `CCn1cc(NC(=O)C2CCCCC2)ccc1=O` [Compound 12b], the IC50 (in assay [1] (setting [6]); against FL-SMARCA4 (setting [7])) was more than 50 µM in each case.

As to `O=C(Nc1cc(CO)c(=O)n(CC(F)F)c1)c1cc(F)c(Cl)s1` [Compound 12c], the values for the IC50 (in assay [1] (setting [8]); at FL-SMARCA4 (setting [9])) were 34.8 µM and more than 50 µM, respectively.

For the compound `CCn1cc(NC(=O)c2cccn2C)ccc1=O` [Compound 13], the IC50 (in assay [1] (setting [2]); against FL-SMARCA4 (setting [3])) was more than 50 µM each time.

As to `CCn1cc(NC(=O)C2CCOCC2)ccc1=O` [Compound 13a], the IC50 (in assay [1] (setting [4]); against FL-SMARCA4 (setting [5])) was more than 50 µM each time.

`CCn1cc(NC(=O)[C@@H]2CCC[C@H](Cl)C2)ccc1=O` [Compound 13b]: the IC50 (in assay [1] (setting [6]); against FL-SMARCA4 (setting [7])) was more than 50 µM in each case.

Turning to `Cn1nccc1-c1cc(NC(=O)c2cc(Cl)c(C(F)(F)F)s2)cn(CC(F)F)c1=O` [Compound 13c], the IC50 (in assay [1] (setting [8]); on FL-SMARCA4 (setting [9])) was more than 50 µM each time.

Regarding `CCn1cc(NC(=O)c2c(C)noc2C)ccc1=O` [Compound 14], the IC50 (in assay [1] (setting [2]); at FL-SMARCA4 (setting [3])) was more than 50 µM throughout.

As to `CCn1cc(NC(=O)c2cccnc2)ccc1=O` [Compound 14a], the IC50 (in assay [1] (setting [4]); on FL-SMARCA4 (setting [5])) was more than 50 µM each time.

`CCn1cc(NC(=O)[C@@H]2CCC[C@@H](Cl)C2)ccc1=O` [Compound 14b]: the IC50 (in assay [1] (setting [6]); against FL-SMARCA4 (setting [7])) was more than 50 µM each time.

`Cn1cc(-c2cc(NC(=O)c3cc(Cl)c(C(F)(F)F)s3)cn(CC(F)F)c2=O)cn1` [Compound 14c]: the IC50 (in assay [1] (setting [8]); against FL-SMARCA4 (setting [9])) was more than 50 µM in each case.

With `CCn1cc(NC(=O)c2cc(C(F)(F)F)nn2C)ccc1=O` [Compound 15], the IC50 (in assay [1] (setting [2]); against FL-SMARCA4 (setting [3])) was more than 50 µM throughout.

In the case of `CCn1cc(NC(=O)c2ccc3c(c2)OCO3)ccc1=O` [Compound 15a], the IC50 (in assay [1] (setting [4]); on FL-SMARCA4 (setting [5])) was more than 50 µM throughout.

Consider `CCn1cc(NC(=O)[C@@H]2CC[C@H](Cl)C2)ccc1=O` [Compound 15b], for which the IC50 (in assay [1] (setting [6]); against FL-SMARCA4 (setting [7])) was more than 50 µM in each case.

Regarding `O=C(Nc1cc(F)c(=O)n(CC(F)F)c1)[C@@H]1CCCN1` [Compound 15c], the IC50 (in assay [1] (setting [8]); against FL-SMARCA4 (setting [9])) was more than 50 µM throughout.

Regarding `CCn1cc(NC(=O)c2cc(C)nn2C)ccc1=O` [Compound 16], the IC50 (in assay [1] (setting [2]); against FL-SMARCA4 (setting [3])) was more than 50 µM throughout.

As for `CCn1cc(NC(=O)c2cnc(Cl)c(Cl)c2)ccc1=O` [Compound 16a], the IC50 is 26.8 µM in assay [1] (setting [4]) and more than 50 µM against FL-SMARCA4 (setting [5]).

Turning to `CCn1cc(NC(=O)[C@H]2CC[C@@H](Cl)C2)ccc1=O` [Compound 16b], the IC50 (in assay [1] (setting [6]); on FL-SMARCA4 (setting [7])) was more than 50 µM throughout.

As to `O=C(Nc1cc(F)c(=O)n(CC(F)F)c1)[C@H]1CCCN1` [Compound 16c], the IC50 (in assay [1] (setting [8]); against FL-SMARCA4 (setting [9])) was more than 50 µM each time.

Take `CCn1nc(NC(=O)c2cc(Cl)c(Cl)n2C)ccc1=O` [Compound 16d]: the IC50 in assay [1] (setting [10]) was 16.7 µM; against FL-SMARCA4 (FL-SMARCA4 IC50), more than 50 µM.

On to `CCn1cc(NC(=O)c2cc(Cl)c(Cl)[nH]2)ccc1=O` [Compound 17], for which the results for the IC50 (in assay [1] (setting [2]); against FL-SMARCA4 (setting [3])) were 4.06 µM and 26.6 µM, respectively.

As to `CCn1cc(NC(=O)c2cncc(Cl)c2)ccc1=O` [Compound 17a], the IC50 (in assay [1] (setting [4]); against FL-SMARCA4 (setting [5])) was more than 50 µM each time.

As for `O=C(Nc1cc(F)c(=O)n(CCF)c1)c1ccc(Cl)c(Cl)c1` [Compound 17b], the IC50 in assay [1] (setting [6]) was 0.645 µM; against FL-SMARCA4 (setting [7]), 4.78 µM.

As to `CN(C)CCc1cc(NC(=O)c2cc(F)c(Cl)s2)cn(CC(F)F)c1=O` [Compound 17c], the IC50 (in assay [1] (setting [8]); against FL-SMARCA4 (setting [9])) was more than 50 µM each time.

Regarding `CCn1cc(NC(=O)Nc2ccccn2)ccc1=O` [Compound 17d], the IC50 (in assay [1] (setting [10]); on FL-SMARCA4 (FL-SMARCA4 IC50)) was more than 50 µM each time.

Consider `CCn1cc(NC(=O)c2ccc(Cl)n2C)ccc1=O` [Compound 18], for which the values for the IC50 (in assay [1] (setting [2]); against FL-SMARCA4 (setting [3])) were 19.5 µM and more than 50 µM, respectively.

Take `CCn1cc(NC(=O)c2[nH]c3ccccc3c2C)ccc1=O` [Compound 18a]: the IC50 (in assay [1] (setting [4]); against FL-SMARCA4 (setting [5])) was more than 50 µM in each case.

Regarding `N#Cc1cc(C(=O)Nc2cc(F)c(=O)n(CCF)c2)ccc1Cl` [Compound 18b], the figures for the IC50 (in assay [1] (setting [6]); on FL-SMARCA4 (setting [7])) were 0.917 µM and 5.34 µM, respectively.

`O=C(Nc1cc(-c2cnco2)c(=O)n(CC(F)F)c1)c1sc(C(F)(F)F)cc1Cl` [Compound 18c]: the IC50 (in assay [1] (setting [8]); on FL-SMARCA4 (setting [9])) was more than 50 µM each time.

Regarding `CCn1cc(NC(=O)c2ccc(Br)n2C)ccc1=O` [Compound 19], the IC50 (in assay [1] (setting [2]); at FL-SMARCA4 (setting [3])) was more than 50 µM in each case.

For `N#Cc1ccc(C(=O)Nc2cc(F)c(=O)n(CCF)c2)cc1Cl` [Compound 19b], the figures for the IC50 (in assay [1] (setting [6]); on FL-SMARCA4 (setting [7])) were 2.02 µM and 12.6 µM, respectively.

As to `Cn1ccc(-c2cc(NC(=O)c3sc(C(F)(F)F)cc3Cl)cn(CC(F)F)c2=O)n1` [Compound 19c], the IC50 (in assay [1] (setting [8]); at FL-SMARCA4 (setting [9])) was more than 50 µM each time.

For the compound `CCn1nc(NC(=O)c2cc(Cl)c(Cl)s2)ccc1=O` [Compound 19d], the IC50 (in assay [1] (setting [10]); against FL-SMARCA4 (FL-SMARCA4 IC50)) was more than 50 µM in each case.
